Where only a bound is given, the exact number is not on record here.

The target of the experiment is human FXR (NR1H4) (Homo sapiens (Human), UniProt Q96RI1). The experiment can be described thus: Human FXR (NR1H4) Assay (Gal4 promoter driven luciferase reporter, Indigo Bioscience kit IB00601). The conditions noted are these: for Efficacy (%): efficacy normalized to CDCA set as 100%; for EC50: potency ranges. The class given is cell-based. From the text: Assays Human FXR (NR1H4) Assay
Determination of a ligand mediated Gal4 promoter driven transactivation quantify ligand binding mediated activation of FXR. FXR Reporter Assay kit purchased from Indigo Bioscience (Catalogue number: IB00601) to determine the potency and efficacy of compound developed by Enanta that can induce FXR activation. The principle application of this reporter assay system is to quantify functional activity of human FXR. The assay utilizes non-human mammalian cells, CHO (Chinese hamster ovary) cells engineered to express human NR1H4 protein (referred to as FXR). Reporter cells also incorporate the cDNA encoding beetle luciferase which catalyzes the substrates and yields photon emission. Luminescence intensity of the reaction is quantified using a plate-reading luminometer, Envision. Reporter Cells include the luciferase reporter gene functionally linked to an FXR responsive promoter. Thus, quantifying changes in luciferase expression in the treated reporter cells provides a sensitive surrogate measure of the changes in FXR activity. […] The assay is according to the manufacturer's instructions. In brief, the assay was performed in white, 96 well plates using final volume of 100 ul containing cells with different doses of compounds. Retrieve Reporter Cells from −80° C. storage. Perform a rapid thaw of the frozen cells by transferring a 10 ml volume of 37° C. cell recovery medium into the tube of frozen cells. Recap the tube of Reporter Cells and immediately place it in a 37° C. water bath for 5-10 minutes. Retrieve the tube of Reporter Cell Suspension from the water bath. Sanitize the outside surface of the tube with a 70% alcohol swab, and then transfer it into the cell culture hood. Dispense 90 μl of cell suspension into each well of the 96-well Assay Plate. Transfer the plate into 37° C. incubator, allowing the cells adherent to the bottom of the well. Dilute compounds in Dilution Plate (DP), and administrate to cells at Assay Plate (AP). DMSO content of the samples was kept at 0.2%. Cells were incubated for additional 22 hours before luciferase activities were measured. Thirty minutes before intending to quantify FXR activity, remove Detection Substrate and Detection Buffer from the refrigerator and place them in a low-light area so that they may equilibrate to room temperature. Remove the plate's lid and discard all media contents by ejecting it into an appropriate waste container. Gently tap the inverted plate onto a clean absorbent paper towel to remove residual droplets. Cells will remain tightly adhered to well bottoms. Add 100 μl of luciferase detection reagent to each well of the assay plate. Allow the assay plate to rest at room temperature for at least 5 minutes following the addition of LDR. Set the instrument (Envision) to perform a single 5 second “plate shake” prior to reading the first assay well. Read time may be 0.5 second (500 mSec) per well.
In general terms: A reporter such as luciferase makes a cellular process visible.

Sequence of human FXR (NR1H4) (Q96RI1 whole entry, the tested form may be a part): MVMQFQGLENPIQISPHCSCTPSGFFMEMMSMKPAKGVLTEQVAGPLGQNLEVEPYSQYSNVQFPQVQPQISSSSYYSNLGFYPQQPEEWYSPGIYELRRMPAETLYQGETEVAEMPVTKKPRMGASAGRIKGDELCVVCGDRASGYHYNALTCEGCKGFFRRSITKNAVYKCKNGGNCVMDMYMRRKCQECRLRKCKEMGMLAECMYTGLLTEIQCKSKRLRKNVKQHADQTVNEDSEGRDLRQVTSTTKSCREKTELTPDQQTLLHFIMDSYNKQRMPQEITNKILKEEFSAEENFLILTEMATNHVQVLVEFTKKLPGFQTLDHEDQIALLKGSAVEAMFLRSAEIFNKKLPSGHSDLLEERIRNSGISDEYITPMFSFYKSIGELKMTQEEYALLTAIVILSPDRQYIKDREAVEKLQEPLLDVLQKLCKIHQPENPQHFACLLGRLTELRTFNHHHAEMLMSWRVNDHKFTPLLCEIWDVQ

What is called EC50 is the concentration needed to bring the measured effect to its halfway point. In the case of `CC[C@H]1[C@@H](O)[C@@H]2[C@H](CC[C@]3(C)[C@@H]([C@H](C)CCCNS(=O)(=O)[O-])CC[C@@H]23)[C@@]2(C)CC[C@@H](O)C[C@@H]12.[Na+]` [Example 135], the “Efficacy (%)” value is reported as 4% and the EC50 lay in the range of 1 to 10 µM.
Take `CC[C@H]1[C@@H](O)[C@@H]2[C@H](CC[C@]3(C)[C@@H]([C@H](C)CCNC(=O)NS(=O)(=O)N4CCCCC4)CC[C@@H]23)[C@@]2(C)CC[C@@H](O)C[C@@H]12` [Example 39]: the “Efficacy (%)” value is listed as 379% and the EC50 is below 0.1 µM.
Regarding `CC[C@H]1[C@@H](O)[C@@H]2[C@H](CC[C@]3(C)[C@@H]([C@H](C)CNC(=O)NS(=O)(=O)c4cccc(N5CCCCC5)c4)CC[C@@H]23)[C@@]2(C)CC[C@@H](O)C[C@@H]12` [Example 121], the “Efficacy (%)” value was found to be 199% and the EC50 was in the range of 0.1 to 1 µM.
`CC[C@H]1[C@@H](O)[C@@H]2[C@H](CC[C@]3(C)[C@@H]([C@H](C)CCNC(=O)NS(=O)(=O)c4cccs4)CC[C@@H]23)[C@@]2(C)CC[C@@H](O)C[C@@H]12` [Example 21]: the “Efficacy (%)” value is reported as 402% and the EC50 fell in the range of 0.1 to 1 µM.
As to `CC[C@H]1[C@@H](O)[C@@H]2[C@H](CC[C@]3(C)[C@@H]([C@H](C)CNS(=O)(=O)C(C)(C)C)CC[C@@H]23)[C@@]2(C)CC[C@@H](O)C[C@@H]12` [Example 143], the “Efficacy (%)” value is 6%.
With `CC[C@H]1[C@@H](O)[C@@H]2[C@H](CC[C@]3(C)[C@@H]([C@H](C)CCNC(=O)NS(=O)(=O)c4ccc5c(c4)OCO5)CC[C@@H]23)[C@@]2(C)CC[C@@H](O)C[C@@H]12` [Example 23], the “Efficacy (%)” value is reported as 488% and the half-maximal effective concentration (EC50) was below 0.1 µM.
On to `CC[C@H]1[C@@H](O)[C@@H]2[C@H](CC[C@]3(C)[C@@H]([C@H](C)CCNC(=O)NS(=O)(=O)c4ccc(Cl)cc4)CC[C@@H]23)[C@@]2(C)CC[C@@H](O)C[C@@H]12` [Example 25], for which the “Efficacy (%)” value was found to be 357% and the EC50 was below 0.1 µM.
`CC[C@H]1[C@@H](O)[C@@H]2[C@H](CC[C@]3(C)[C@@H]([C@H](C)CCNC(=O)NS(=O)(=O)N4C[C@@H](C)O[C@H](C)C4)CC[C@@H]23)[C@@]2(C)CC[C@@H](O)C[C@@H]12` [Example 82]: the “Efficacy (%)” value came to 321% and the EC50 is below 0.1 µM.
As to `CCCCS(=O)(=O)NC(=O)NCC[C@@H](C)[C@H]1CC[C@H]2[C@@H]3[C@H](O)[C@H](CC)[C@@H]4C[C@H](O)CC[C@]4(C)[C@H]3CC[C@]12C` [Example 90], the “Efficacy (%)” value came out at 407% and the 50% effective concentration (EC50) was below 0.1 µM.
As to `CC[C@H]1[C@@H](O)[C@@H]2[C@H](CC[C@]3(C)[C@@H]([C@H](C)CCNC(=O)NS(=O)(=O)N(C)C)CC[C@@H]23)[C@@]2(C)CC[C@@H](O)C[C@@H]12` [Example 91], the “Efficacy (%)” value is given as 399% and the EC50 is below 0.1 µM.
With `C[C@H](CCNC(=O)NS(=O)(=O)c1ccc(C(C)(C)C)cc1)[C@H]1CC[C@H]2[C@@H]3[C@H](O)C[C@@H]4C[C@H](O)CC[C@]4(C)[C@H]3CC[C@]12C` [Example 110], the “Efficacy (%)” value is listed as 320% and the EC50 was in the range of 1 to 10 µM.
`CC[C@H]1[C@@H](O)[C@@H]2[C@H](CC[C@]3(C)[C@@H]([C@H](C)CCNC(=O)NS(=O)(=O)C4(C)CC4)CC[C@@H]23)[C@@]2(C)CC[C@@H](O)C[C@@H]12` [Example 46]: the “Efficacy (%)” value came out at 315% and the EC50 is below 0.1 µM.
As to `CC[C@H]1[C@@H](O)[C@@H]2[C@H](CC[C@]3(C)[C@@H]([C@H](C)CCNS(=O)(=O)C(C)(C)C(=O)O)CC[C@@H]23)[C@@]2(C)CC[C@@H](O)C[C@@H]12` [Example 138], the “Efficacy (%)” value was determined as 2% and the 50% effective concentration (EC50) lay in the range of 1 to 10 µM.
Consider `CC[C@H]1[C@@H](O)[C@@H]2[C@H](CC[C@]3(C)[C@@H]([C@H](C)CCNS(=O)(=O)CC(=O)O)CC[C@@H]23)[C@@]2(C)CC[C@@H](O)C[C@@H]12` [Example 132], for which the “Efficacy (%)” value is reported as 7% and the EC50 lay in the range of 1 to 10 µM.
For `CC[C@H]1[C@@H](O)[C@@H]2[C@H](CC[C@]3(C)[C@@H]([C@H](C)CCNC(=O)NS(=O)(=O)N4CCOCC4)CC[C@@H]23)[C@@]2(C)CC[C@@H](O)C[C@@H]12` [Example 37], the “Efficacy (%)” value stood at 254% and the EC50 is below 0.1 µM.
Taken in the same sequence, the figures for `CC[C@H]1[C@@H](O)[C@@H]2[C@H](CC[C@]3(C)[C@@H]([C@H](C)CCNC(=O)NS(=O)(=O)c4ccc(F)cc4)CC[C@@H]23)[C@@]2(C)CC[C@@H](O)C[C@@H]12` [Example 94] were 361% and below 0.1 µM.
Take `CC[C@H]1[C@@H](O)[C@@H]2[C@H](CC[C@]3(C)[C@@H]([C@H](C)CCNC(=O)NS(=O)(=O)c4ccc5ccccc5c4)CC[C@@H]23)[C@@]2(C)CC[C@@H](O)C[C@@H]12` [Example 1]: the “Efficacy (%)” value is reported as 337% and the EC50 was below 0.1 µM.
Taken in the same sequence, the figures for `CC[C@H]1[C@@H](O)[C@@H]2[C@H](CC[C@]3(C)[C@@H]([C@H](C)CCNC(=O)NS(=O)(=O)c4ccc(C5CCCCC5)cc4)CC[C@@H]23)[C@@]2(C)CC[C@@H](O)C[C@@H]12` [Example 59] were 344% and 0.1 to 1 µM.
For `CC[C@H]1[C@@H](O)[C@@H]2[C@H](CC[C@]3(C)[C@@H]([C@H](C)CCNC(=O)NS(=O)(=O)c4ccc(C)cc4)CC[C@@H]23)[C@@]2(C)CC[C@@H](O)C[C@@H]12` [Example 93], the “Efficacy (%)” value is listed as 443% and the EC50 is below 0.1 µM.
For the compound `CC[C@H]1[C@@H](O)[C@@H]2[C@H](CC[C@]3(C)[C@@H]([C@H](C)CCNC(=O)NS(=O)(=O)c4cc(F)cc(F)c4)CC[C@@H]23)[C@@]2(C)CC[C@@H](O)C[C@@H]12` [Example 102], the “Efficacy (%)” value is recorded as 210% and the EC50 is below 0.1 µM.
With `CC[C@H]1[C@@H](O)[C@@H]2[C@H](CC[C@]3(C)[C@@H]([C@H](C)CCNC(=O)NS(=O)(=O)c4nccs4)CC[C@@H]23)[C@@]2(C)CC[C@@H](O)C[C@@H]12` [Example 100], the “Efficacy (%)” value is 364% and the EC50 was in the range of 1 to 10 µM.
`CC[C@H]1[C@@H](O)[C@@H]2[C@H](CC[C@]3(C)[C@@H]([C@H](C)CCNC(=O)NS(=O)(=O)c4ccc5c(c4)OCCO5)CC[C@@H]23)[C@@]2(C)CC[C@@H](O)C[C@@H]12` [Example 58]: the “Efficacy (%)” value worked out at 307% and the EC50 is below 0.1 µM.
On to `CC[C@H]1[C@@H](O)[C@@H]2[C@H](CC[C@]3(C)[C@@H]([C@H](C)CCNC(=O)NS(=O)(=O)c4ccccc4)CC[C@@H]23)[C@@]2(C)CC[C@@H](O)C[C@@H]12` [Example 4], for which the “Efficacy (%)” value is listed as 342% and the EC50 is below 0.1 µM.
On the same counts, the results for `CC[C@H]1[C@@H](O)[C@@H]2[C@H](CC[C@]3(C)[C@@H]([C@H](C)CNC(=O)NS(=O)(=O)c4cccc(C(C)(C)C)c4)CC[C@@H]23)[C@@]2(C)CC[C@@H](O)C[C@@H]12` [Example 115] are 291% and 0.1 to 1 µM.
